Values after ≈ are worked out from the molar mass of the structure shown.
Tests used:
Test in all cases: MIC, broth microdilution
E. coli GC 1073 = details: Escherichia coli, GC1073, E. coli GC 1073
P. aeruginosa GC 2214 = details: Pseudomonas aeruginosa, GC2214, P. aeruginosa GC 2214
E. coli GC 6465 = details: Escherichia coli, GC6465, E. coli GC 6465
E. faecalis GC 2265 = details: Enterococcus faecalis, GC2265, E. faecalis GC 2265
E. coli GC 2270 = details: Escherichia coli, GC2270, E. coli GC 2270
E. coli GC 2233 = details: Escherichia coli, GC2233, E. coli GC 2233
S. aureus GC 1131 = details: Staphylococcus aureus, GC1131, S. aureus GC 1131
c. albicans GC 3066 = system: c. albicans GC 3066
E. faecalis GC 2267 = details: Enterococcus faecalis, GC2267, E. faecalis GC 2267
S. aureus GC 1079 = details: Staphylococcus aureus, GC1079, S. aureus GC 1079
E. coli GC 2203 = details: Escherichia coli, GC2203, E. coli GC 2203
Experimental: Antimicrobial susceptibility testing. The in vitro activities of the antibiotics are determined by the broth microdilution method as recommended by the National Committee for Clinical Laboratory Standards (NCCLS) (1). Mueller-Hinton II broth (MHBII)(BBL Cockeysville, Md.) is the medium employed in the testing procedures. Microtiter plates containing serial dilutions of each antimicrobial agent are inoculated with each organism to yield the appropriate density (10^5 CFU/ml) in a 100 μl final volume. The plates are incubated for 18-22 hours at 35° C. in ambient air. […] Standard Pharmacological Test Procedures
Presented in Tables I-XIII are representative compounds of Formula I which were evaluated against a panel of 40 selected gram-positive and gram-negative bacteria strains by pre-incubation in water, mouse serum or human serum. Representative compounds were first incubated in mouse serum for an hour prior to the in vitro testing against a panel of selected gram-positive and gram-negative bacteria strains. All compounds were also pre-incubated in water for an hour prior to testing as control. Representative compounds of Formula I were incubated in human serum prior to MIC determination.

E. coli GC 4560 = details: Escherichia coli, GC4560, E. coli GC 4560
E. coli GC 2271 = details: Escherichia coli, GC2271, E. coli GC 2271
E. faecium GC 2243 = details: Enterococcus faecium, GC2243, E. faecium GC 2243
S. aureus GC 6467 = details: Staphylococcus aureus, GC6467, S. aureus GC 6467
E. coli GC 2272 = details: Escherichia coli, GC2272, E. coli GC 2272
E. coli GC 3226 = details: Escherichia coli, GC3226, E. coli GC 3226
S. epidermidis GC 4935 = details: Staphylococcus epidermidis, GC4935, S. epidermidis GC 4935
S. aureus GC 6469 = details: Staphylococcus aureus, GC6469, S. aureus GC 6469
S. aureus GC 6335 = details: Staphylococcus aureus, GC6335, S. aureus GC 6335

Work on `CCCN(CC(=O)Nc1cc(N(C)C)c2c(c1O)C(=O)C1=C(O)[C@]3(O)C(=O)C(C(N)=O)=C(O)[C@@H](N(C)C)[C@@H]3C[C@@H]1C2)C(=O)OCC(C)C` [Example 16, isobutyl 2-{[(5aR,6aS,7S,10aS)-9-(aminocarbonyl)-4,7-bis(dimethylamino)-1,8,10a,11-tetrahydroxy-10,12-dioxo-5,5a,6,6a,7,10,10a,12-octahydrotetracen-2-yl]amino}-2-oxoethyl(propyl)carbamate] yielded an MIC (E. coli GC 1073; Mouse Serum pre-incubation) of over 64 µg/mL, an MIC (E. coli GC 1073; Water pre-incubation) of over 64 µg/mL and an MIC (P. aeruginosa GC 2214; Mouse Serum pre-incubation) of over 64 µg/mL. It also gave an MIC (P. aeruginosa GC 2214; Water pre-incubation) of over 64 µg/mL, an MIC (E. coli GC 6465; Mouse Serum pre-incubation) of over 64 µg/mL and an MIC (E. coli GC 6465; Water pre-incubation) of over 64 µg/mL. It also gave an MIC (E. faecalis GC 2265; Mouse Serum pre-incubation) of 4 µg/mL (≈ 5.95 µM), an MIC (E. faecalis GC 2265; Water pre-incubation) of 8 µg/mL (≈ 11.9 µM) and an MIC (E. coli GC 2270; Mouse Serum pre-incubation) of over 64 µg/mL. For the same compound, the MIC (E. coli GC 2270; Water pre-incubation) was over 64 µg/mL, the MIC (E. coli GC 2233; Mouse Serum pre-incubation) was over 64 µg/mL and the MIC (E. coli GC 2233; Water pre-incubation) was over 64 µg/mL. The MIC (S. aureus GC 1131; Mouse Serum pre-incubation) was 2 µg/mL (≈ 2.98 µM), the MIC (S. aureus GC 1131; Water pre-incubation) was 4 µg/mL (≈ 5.95 µM) and the MIC (c. albicans GC 3066; Candida albicans, GC3066) was over 64 µg/mL. For the same compound, the MIC (c. albicans GC 3066; c. albicans GC 3066, Water pre-incubation) was over 64 UG/ML, the MIC (E. faecalis GC 2267; Mouse Serum pre-incubation) was 4 µg/mL (≈ 5.95 µM) and the MIC (E. faecalis GC 2267; Water pre-incubation) was 8 µg/mL (≈ 11.9 µM). The MIC (S. aureus GC 1079; Mouse Serum pre-incubation) was 2 µg/mL (≈ 2.98 µM), the MIC (S. aureus GC 1079; Water pre-incubation) was 4 µg/mL (≈ 5.95 µM) and the MIC (E. coli GC 2203; Mouse Serum pre-incubation) was 16 µg/mL (≈ 23.8 µM). The MIC (E. coli GC 2203; Water pre-incubation) was 64 µg/mL (≈ 95.3 µM), the MIC (E. coli GC 4560; Mouse Serum pre-incubation) was 2 µg/mL (≈ 2.98 µM) and the MIC (E. coli GC 4560; Water pre-incubation) was 4 µg/mL (≈ 5.95 µM). The MIC (E. coli GC 2271; Mouse Serum pre-incubation) was over 64 µg/mL, the MIC (E. coli GC 2271; Water pre-incubation) was over 64 µg/mL and the MIC (E. faecium GC 2243; Mouse Serum pre-incubation) was 4 µg/mL (≈ 5.95 µM). It also gave an MIC (E. faecium GC 2243; Water pre-incubation) of 8 µg/mL (≈ 11.9 µM), an MIC (S. aureus GC 6467; Mouse Serum pre-incubation) of 8 µg/mL (≈ 11.9 µM) and an MIC (S. aureus GC 6467; Water pre-incubation) of 8 µg/mL (≈ 11.9 µM). It also gave an MIC (E. coli GC 2272; Mouse Serum pre-incubation) of over 64 µg/mL, an MIC (E. coli GC 2272; Water pre-incubation) of over 64 µg/mL and an MIC (E. coli GC 3226; Mouse Serum pre-incubation) of 64 µg/mL (≈ 95.3 µM). The MIC (E. coli GC 3226; Water pre-incubation) was over 64 µg/mL, the MIC (S. epidermidis GC 4935; Mouse Serum pre-incubation) was 8 µg/mL (≈ 11.9 µM) and the MIC (S. epidermidis GC 4935; Water pre-incubation) was 8 µg/mL (≈ 11.9 µM). For the same compound, the MIC (S. aureus GC 6469; Mouse Serum pre-incubation) was 4 µg/mL (≈ 5.95 µM), the MIC (S. aureus GC 6469; Water pre-incubation) was 8 µg/mL (≈ 11.9 µM) and the MIC (S. aureus GC 6335; Mouse Serum pre-incubation) was 4 µg/mL (≈ 5.95 µM). It also gave an MIC (S. aureus GC 6335; Water pre-incubation) of 4 µg/mL (≈ 5.95 µM).

Reference: patent US20070049564A1 (Wyeth, priority 2005, published 2007)
